Assay results published in article PMC12648864 (Biology of Sex Differences, 2025).
Read-outs that look alike come from different tables or passages of the source.

How the values were obtained:
[1] = cited from earlier work
[2] = parameters: method as in PMID 27169283; conditions: ovariectomized rat, plasma; cited from earlier work
in vivo = conditions: for AUC(0-t) / AUC(0-inf) / Cmax / Tmax / half-life: Sprague-Dawley, rat, plasma, po, 0.59 mg/kg
Source text: In detail, 6 intact 8-week-old male and female Sprague-Dawley (SD) rats, as well as 6 intact 5-week-old male and female SD rats were purchased from Changyang Xishan Breeding Farm (Beijing Changyang Xishan Breeding Farm, China). All rats were provided standard chow and freely-available drinking water. They were acclimatized for 1 week and fasted overnight before drug administration. The rats were divided into intact and GDX groups, with 6 males and 6 females in each group. In GDX group, testes were surgically removed from male rat at 5 weeks of age, while ovaries were excised from female rat. Following surgery, GDX rats were maintained for an additional […] before testing. All animals, both intact and GDX, were tested at 8 weeks of age.
Blood was collected from orbital vein into a centrifuge tube containing sodium heparin at following time points: 5, 10, 15, 30, and 45 min, as well as 1, 1.5, 2, 4, 6, 8, 12, 24, and 48 h. The collected blood was shaken well and centrifuged at 1500 g for 10 min to separate plasma, then stored at −20 ℃ until use. All experimental procedures were reviewed and approved by the Ethical Committee for Use of Laboratory Animals of the Shanxi Medical University (SYDL2025013).
In detail, 180 µL of plasma was pipetted into a tube, followed by the addition of 20 µL of internal standard (100 ng/mL ephedrine) and the mixture was vortexed for 5 s. Next, 1 mL of acetonitrile precipitation protein was added to this mixture, which was vortexed again for 20 s. Finally, the mixture was centrifuged at 13,000 g for 10 min and the supernatant was transferred to a clean tube. This supernatant was evaporated to dryness under a stream of nitrogen at 35 ℃, then reconstituted in 200 µL of a compound solution consisting of methanol and […] ammonium formate (containing 0.1% formic acid) in a 40:60 (v/v) ratio. The reconstituted supernatant was stored at −80 ℃ until use. Subsequently, the supernatant was passed through a 0.22 μm organic filter before analysis using 1260–6470 HPLC-tandem mass spectrometry (MS/MS).
The mobile phase consisted of A: water + […] ammonium formate + 0.1% formic acid, and B: methanol. The gradient elution program was as follows: 0–1 min, 20% B; 1–6.5 min, 20%−80% B; 6.5–7.5 min, 80% B; 7.5–8.5 min, 80%−20% B; 8.5–12 min, 20% B.
MS conditions: Detection was carried out using an Agilent Jet Stream electrospray ionization source in positive ion mode, operating in multiple reaction monitoring mode. The ion source temperature was 300 ℃, and the nebulizer temperature was 305 ℃. The gas flow rate was maintained at 11.0 L/min, with the capillary voltage of 4000 V.

[3] = parameters: method as in PMID 38276513; conditions: following gonadectomy; cited from earlier work
[4] = female, GDX female rats, oral 0.59 mg/kg
[5] = female, intact female rats, oral 0.59 mg/kg
[6] = male, GDX male rats, oral 0.59 mg/kg
[7] = male, intact male rats, oral 0.59 mg/kg

COc1c([C@H]2[C@H](C(=O)Nc3ccnc(C(N)=O)c3)O[C@@](C)(C(F)(F)F)[C@H]2C)ccc(F)c1F [VX-548]
AUC ([1]; female rats): 1505.8 ± 47.3 ng·h/mL
clearance rate ([1]; female rats): 12.5 ± 0.8 mL/min/kg
AUC ([1]; male rats): 253.8 ± 6.3 ng·h/mL
clearance rate ([1]; male rats): 65.1 ± 1.7 mL/min/kg

C[C@H]1O[C@@H](O[C@H]2[C@@H](O)C[C@H](O[C@H]3[C@@H](O)C[C@H](O[C@H]4CC[C@@]5(C)[C@H](CC[C@@H]6[C@@H]5C[C@@H](O)[C@]5(C)[C@@H](C7=CC(=O)OC7)CC[C@]65O)C4)O[C@@H]3C)O[C@@H]2C)C[C@H](O)[C@@H]1O [digoxin]
peak digoxin concentration after ovariectomy [2]: significantly lower

O=C1C[C@@H]2OCC=C3CN4CC[C@]56c7ccccc7N1[C@H]5[C@H]2[C@H]3C[C@H]46 [strychnine, Strychnine nitrate]
delay of time to peak concentration, female later than male rats (in vivo; GDX group, oral 0.59 mg/kg): 0.6 h
peak of plasma concentration in female rats relative to male rats (in vivo; GDX group, oral 0.59 mg/kg): 3.70 times
AUC(0-t) (in vivo; [4]): 489 ± 40.6 ng·h/mL
AUC(0-t) (in vivo; [5]): 409 ± 58.4 ng·h/mL
AUC(0-inf) (in vivo; [4]): 501 ± 43.5 ng·h/mL
AUC(0-inf) (in vivo; [5]): 403 ± 57.7 ng·h/mL
Cmax (in vivo; [4]): 48.1 ± 4.06 ng/mL
Cmax (in vivo; [5]): 116 ± 2.7 ng/mL
Tmax (in vivo; female): 0.63 ± 0.14 h
Tmax (in vivo; [4]): 1.6 ± 0.22 h
half-life (in vivo; female, t1/2, GDX female rats, oral 0.59 mg/kg): 9.06 ± 1.82 h
half-life (in vivo; female, t1/2, intact female rats, oral 0.59 mg/kg): 5.7 ± 2.6 h
delay of time to peak concentration, female later than male rats (in vivo; intact group, oral 0.59 mg/kg): 0.05 h
peak of plasma concentration in female rats relative to male rats (in vivo; intact group, oral 0.59 mg/kg): 3.49 times
AUC(0-t) (in vivo; [6]): 152 ± 10.4 ng·h/mL
AUC(0-t) (in vivo; [7]): 96.8 ± 24.9 ng·h/mL
AUC(0-inf) (in vivo; [6]): 153 ± 10.3 ng·h/mL
AUC(0-inf) (in vivo; [7]): 97 ± 24.7 ng·h/mL
Cmax (in vivo; [6]): 13 ± 0.6 ng/mL
Cmax (in vivo; [7]): 33.4 ± 2.01 ng/mL
Tmax (in vivo; male): 0.58 ± 0.13 h
Tmax (in vivo; [6]): 1 h
half-life (in vivo; male, t1/2, GDX male rats, oral 0.59 mg/kg): 7.68 ± 0.94 h
half-life (in vivo; male, t1/2, intact male rats, oral 0.59 mg/kg): 3.84 ± 1.48 h

NCCCC(=O)O [γ-aminobutyric acid]
area under the curve, testosterone-treated male rats versus female rats with similar treatment [3]: higher
renal clearance, testosterone-treated male rats versus female rats with similar treatment [3]: significantly lower
